For 19 compounds, IC50 and Ki results are on record in ChEMBL document CHEMBL1909046, “DrugMatrix in vitro pharmacology data”.

For data set [1], the target named is T1, Alpha-1D adrenergic receptor (Homo sapiens, UniProt P25100).
T1 sequence (P25100 whole entry): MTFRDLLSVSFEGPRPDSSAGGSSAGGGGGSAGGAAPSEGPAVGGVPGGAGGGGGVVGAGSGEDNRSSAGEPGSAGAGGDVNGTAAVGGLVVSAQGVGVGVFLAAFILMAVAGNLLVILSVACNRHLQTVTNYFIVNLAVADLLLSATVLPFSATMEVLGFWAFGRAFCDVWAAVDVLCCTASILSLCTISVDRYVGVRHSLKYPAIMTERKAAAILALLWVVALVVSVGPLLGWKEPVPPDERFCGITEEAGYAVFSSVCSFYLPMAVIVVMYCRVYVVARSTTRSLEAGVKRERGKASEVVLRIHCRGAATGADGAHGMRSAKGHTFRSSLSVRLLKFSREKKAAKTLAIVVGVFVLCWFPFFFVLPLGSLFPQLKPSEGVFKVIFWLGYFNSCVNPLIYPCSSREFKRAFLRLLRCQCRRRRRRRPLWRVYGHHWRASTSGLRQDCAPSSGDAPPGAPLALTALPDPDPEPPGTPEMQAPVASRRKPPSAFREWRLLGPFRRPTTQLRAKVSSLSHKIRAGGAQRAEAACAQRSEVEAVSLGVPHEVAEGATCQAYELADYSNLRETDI
The format is cell membranes, HEK293, Membrane. Particulars: for Ki: read-out: Ki.

A further data set has as its target T2, Thromboxane-A synthase (Homo sapiens, UniProt P24557).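 Further: enzyme inhibition assay with PGH2 supplied as substrate.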
T2 sequence (P24557 whole entry): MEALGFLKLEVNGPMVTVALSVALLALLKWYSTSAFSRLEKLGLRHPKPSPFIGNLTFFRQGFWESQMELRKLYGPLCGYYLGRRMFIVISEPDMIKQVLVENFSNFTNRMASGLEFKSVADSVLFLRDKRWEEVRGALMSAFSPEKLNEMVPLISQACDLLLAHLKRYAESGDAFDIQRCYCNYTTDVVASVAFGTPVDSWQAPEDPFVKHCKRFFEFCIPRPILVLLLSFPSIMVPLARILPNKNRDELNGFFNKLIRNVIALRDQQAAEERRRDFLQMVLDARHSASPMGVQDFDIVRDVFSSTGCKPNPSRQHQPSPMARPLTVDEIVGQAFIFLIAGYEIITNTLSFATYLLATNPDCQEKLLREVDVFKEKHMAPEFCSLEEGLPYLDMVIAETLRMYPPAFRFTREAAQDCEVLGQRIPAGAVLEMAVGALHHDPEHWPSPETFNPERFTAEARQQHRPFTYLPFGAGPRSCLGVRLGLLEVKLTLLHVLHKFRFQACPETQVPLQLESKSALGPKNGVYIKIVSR
Put plainly: biochemical. In kind it is tissue-based, Platelet.

Data set [2] has as its target C-C chemokine receptor type 5 (Homo sapiens, UniProt P51681). In kind it is cell membranes, Membrane. To be noted: hek293.
The target of data set [3] is T3, Muscarinic acetylcholine receptor M5 (Homo sapiens, UniProt P08912).
T3 sequence (P08912 whole entry): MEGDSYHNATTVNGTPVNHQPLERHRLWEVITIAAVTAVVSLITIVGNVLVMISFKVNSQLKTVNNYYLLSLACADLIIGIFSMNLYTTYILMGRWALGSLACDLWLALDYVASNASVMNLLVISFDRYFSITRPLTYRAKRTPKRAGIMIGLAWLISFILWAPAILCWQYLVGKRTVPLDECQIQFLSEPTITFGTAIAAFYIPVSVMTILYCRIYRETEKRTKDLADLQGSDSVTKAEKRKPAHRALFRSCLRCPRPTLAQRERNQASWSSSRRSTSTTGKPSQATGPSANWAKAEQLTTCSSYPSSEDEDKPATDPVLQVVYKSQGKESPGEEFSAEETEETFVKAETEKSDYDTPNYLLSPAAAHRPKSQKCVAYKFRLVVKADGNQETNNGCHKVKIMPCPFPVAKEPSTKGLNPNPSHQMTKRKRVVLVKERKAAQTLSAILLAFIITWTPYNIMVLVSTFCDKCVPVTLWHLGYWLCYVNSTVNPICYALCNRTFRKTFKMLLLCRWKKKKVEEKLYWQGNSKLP
In kind it is cell membranes, CHO-K1, Membrane. To be noted: cho-k1.

For data set [4], the target named is Protein kinase C alpha type (Homo sapiens, UniProt P17252). The format is cell-based. Particulars: sf9.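 Further: inhibition of PKCalpha kinase activity measured in an enzyme assay with histone as the phosphorylation substrate.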
The target of a further data set is T4, Cytochrome P450 2A6 (Homo sapiens, UniProt P11509).
T4 sequence (P11509 whole entry): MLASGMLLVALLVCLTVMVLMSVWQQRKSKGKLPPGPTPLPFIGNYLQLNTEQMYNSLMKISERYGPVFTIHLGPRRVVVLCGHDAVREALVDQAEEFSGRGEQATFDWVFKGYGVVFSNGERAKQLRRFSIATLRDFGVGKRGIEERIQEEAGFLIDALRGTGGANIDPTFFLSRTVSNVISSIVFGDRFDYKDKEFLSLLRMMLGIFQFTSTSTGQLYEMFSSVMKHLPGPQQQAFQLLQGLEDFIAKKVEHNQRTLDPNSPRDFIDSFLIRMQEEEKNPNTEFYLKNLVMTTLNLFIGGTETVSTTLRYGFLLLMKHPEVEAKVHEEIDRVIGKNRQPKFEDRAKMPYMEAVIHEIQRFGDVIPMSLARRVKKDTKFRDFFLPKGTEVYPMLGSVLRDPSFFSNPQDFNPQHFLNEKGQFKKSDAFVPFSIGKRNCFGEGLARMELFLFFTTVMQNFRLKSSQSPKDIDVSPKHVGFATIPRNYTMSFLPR
Particulars: bti-tn-5b1-4.
Further: in other assays of this panel Not Active means under 50% inhibition at 10 µM.

Chain of C-C chemokine receptor type 5 (P51681 whole entry): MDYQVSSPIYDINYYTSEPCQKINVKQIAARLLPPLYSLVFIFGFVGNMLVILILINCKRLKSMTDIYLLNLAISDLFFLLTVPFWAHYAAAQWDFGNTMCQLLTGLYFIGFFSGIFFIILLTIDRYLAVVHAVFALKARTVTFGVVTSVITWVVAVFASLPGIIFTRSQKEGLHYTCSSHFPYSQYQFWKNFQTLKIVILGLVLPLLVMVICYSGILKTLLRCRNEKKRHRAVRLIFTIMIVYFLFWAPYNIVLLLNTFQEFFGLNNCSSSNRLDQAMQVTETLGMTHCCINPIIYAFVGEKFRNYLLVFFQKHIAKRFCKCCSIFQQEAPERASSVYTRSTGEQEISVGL

`CCCCC(=O)N(Cc1ccc(-c2ccccc2-c2nnn[nH]2)cc1)[C@H](C(=O)O)C(C)C`: the 50% inhibitory concentration (IC50) result (in data set [1] (hek293); against Thromboxane-A synthase (platelet); in data set [2]; in data set [3]; in data set [4]; against Cytochrome P450 2A6) was “Not Active” each time. The inhibitory constant (Ki) – broadly, the equilibrium dissociation constant of an inhibitor or competing ligand from its target – on Cytochrome P450 2A6 is on record as “Not Active”.
Consider `O=C(O)COc1ccc(C(=O)c2cccs2)c(Cl)c1Cl`, for which the half-inhibitory concentration (IC50) entry (in data set [1] (hek293); against Thromboxane-A synthase (platelet); in data set [2]; in data set [3]; in data set [4]; on Cytochrome P450 2A6) was “Not Active” each time. In addition, the Ki result on Cytochrome P450 2A6 is “Not Active”.
Consider `CN1[C@@H]2CC[C@H]1C[C@@H](OC(c1ccccc1)c1ccccc1)C2` [BENZTROPINE], for which the IC50 (usually the concentration at which inhibition is half-maximal) in data set [1] (read-out: IC50) is 52 nM; at Thromboxane-A synthase (platelet) it was “Not Active”; in data set [2], “Not Active”; in data set [4], “Not Active”; against Cytochrome P450 2A6, “Not Active”. The figures for the Ki (in data set [1]; on Cytochrome P450 2A6) were 26 nM and “Not Active”, respectively.
For `C[C@@](Cc1ccc(O)c(O)c1)(NN)C(=O)O.O` [CARBIDOPA], the IC50 entry (in data set [1] (hek293); on Thromboxane-A synthase (platelet); in data set [2]; in data set [3]; in data set [4]; on Cytochrome P450 2A6) was “Not Active” each time. Moreover, the inhibition constant (Ki) result at Cytochrome P450 2A6 is “Not Active”.
`CN1CCN(C2=Nc3cc(Cl)ccc3Nc3ccccc32)CC1` [CLOZAPINE]: the IC50 result (against Thromboxane-A synthase (platelet); in data set [2]; in data set [4]; on Cytochrome P450 2A6) was “Not Active” in each case. The Ki result at Cytochrome P450 2A6 is recorded as “Not Active”.
As for `CC(C)NC[C@@H](O)COc1cccc2ccccc12` [DEXPROPRANOLOL], the IC50 result (in data set [1] (hek293); against Thromboxane-A synthase (platelet); in data set [2]; in data set [3]; in data set [4]; against Cytochrome P450 2A6) was “Not Active” each time. At Cytochrome P450 2A6, the Ki result is on record as “Not Active”.
In the case of `CC(C)NC[C@H](O)COc1cccc2ccccc12` [LEVOPROPRANOLOL], the IC50 result (in data set [1] (hek293); against Thromboxane-A synthase (platelet); in data set [2]; in data set [3]; in data set [4]; at Cytochrome P450 2A6) was “Not Active” in each case. Moreover, at Cytochrome P450 2A6, the Ki entry is given as “Not Active”.
Take `O=C(O)CCCCC1CCSS1` (stereo not drawn) [LIPOIC ACID, ALPHA]: the IC50 entry (in data set [1] (hek293); at Thromboxane-A synthase (platelet); in data set [2]; in data set [3]; in data set [4]; on Cytochrome P450 2A6) was “Not Active” throughout. For the same compound, the Ki entry at Cytochrome P450 2A6 is “Not Active”.
Regarding `CN(C)C(=O)C(CCN1CCC(O)(c2ccc(Cl)cc2)CC1)(c1ccccc1)c1ccccc1` [LOPERAMIDE], the IC50 result (in data set [1] (hek293); at Thromboxane-A synthase (platelet); in data set [2]; in data set [3]; in data set [4]; at Cytochrome P450 2A6) was “Not Active” each time. Besides, the Ki entry on Cytochrome P450 2A6 was “Not Active”.
For `Clc1ccc(COC(Cn2ccnc2)c2ccc(Cl)cc2Cl)c(Cl)c1` (configuration not stated) [MICONAZOLE], the IC50 is 3050 nM in data set [1] (read-out: IC50); 263 nM at Thromboxane-A synthase (read-out: IC50); “Not Active” in data set [2]; “Not Active” in data set [3]; “Not Active” in data set [4]; “Not Active” at Cytochrome P450 2A6. Moreover, the inhibitory constant (Ki) in data set [1] was 1500 nM; at Cytochrome P450 2A6 it was “Not Active”.
For the compound `Oc1ccc2c3c1O[C@H]1[C@@H](O)CC[C@@]4(O)[C@@H](C2)N(CC2CCC2)CC[C@]314` [NALBUPHINE], the IC50 entry (in data set [1] (hek293); on Thromboxane-A synthase (platelet); in data set [2]; in data set [3]; in data set [4]) was “Not Active” throughout.
`C[C@]12C=CC(=O)C=C1CC[C@@H]1[C@@H]2C(=O)C[C@@]2(C)[C@H]1CC[C@]2(O)C(=O)CO` [PREDNISONE]: the half-maximal inhibitory concentration (IC50) result (in data set [1] (hek293); against Thromboxane-A synthase (platelet); in data set [2]; in data set [3]; in data set [4]) was “Not Active” in each case.
On to `OCCOCCN1CCN(C2=Nc3ccccc3Sc3ccccc32)CC1` [QUETIAPINE], for which the IC50 in data set [1] (read-out: IC50) was 96.6 nM; at Thromboxane-A synthase (platelet) it was “Not Active”; in data set [2] it was “Not Active”; in data set [4], “Not Active”; against Cytochrome P450 2A6, “Not Active”. For the same compound, the values for the Ki (in data set [1]; on Cytochrome P450 2A6) were 47.5 nM and “Not Active”, respectively.
Turning to `COC(=O)[C@H]1[C@H]2C[C@@H]3c4[nH]c5cc(OC)ccc5c4CCN3C[C@H]2C[C@@H](OC(=O)c2cc(OC)c(OC)c(OC)c2)[C@@H]1OC` [RESERPINE], the IC50 result (in data set [1] (hek293); at Thromboxane-A synthase (platelet); in data set [2]; in data set [3]; in data set [4]; against Cytochrome P450 2A6) was “Not Active” throughout. Moreover, the Ki result at Cytochrome P450 2A6 is on record as “Not Active”.
Regarding `O=C(O)c1ccccc1O` [SALICYLIC ACID], the IC50 entry (in data set [1] (hek293); against Thromboxane-A synthase (platelet); in data set [2]; in data set [3]; in data set [4]; on Cytochrome P450 2A6) was “Not Active” each time. Also, the Ki result at Cytochrome P450 2A6 is “Not Active”.
On to `C[S+]([O-])c1ccc(-c2nc(-c3ccncc3)c(-c3ccc(F)cc3)[nH]2)cc1` (configuration not stated) [SB-203580], for which the IC50 entry (in data set [1] (hek293); in data set [2]; in data set [3]; in data set [4]; on Cytochrome P450 2A6) was “Not Active” throughout. The inhibition constant (Ki) result at Cytochrome P450 2A6 is given as “Not Active”.
For `CC1CCC(NC(=O)N(CCCl)N=O)CC1` (configuration not stated) [SEMUSTINE], the IC50 entry (in data set [1] (hek293); against Thromboxane-A synthase (platelet); in data set [2]; in data set [3]; in data set [4]; at Cytochrome P450 2A6) was “Not Active” each time. The Ki entry at Cytochrome P450 2A6 is “Not Active”.
On to `O=C1C[C@@H]2OCC=C3CN4CC[C@]56c7ccccc7N1[C@H]5[C@H]2[C@H]3C[C@H]46` [STRYCHNINE], for which the IC50 entry (in data set [1] (hek293); against Thromboxane-A synthase (platelet); in data set [2]; in data set [3]; in data set [4]; against Cytochrome P450 2A6) was “Not Active” in each case. Moreover, the inhibition constant (Ki) result on Cytochrome P450 2A6 is “Not Active”.
`C[N+](C)(C)CCOC(=O)CCC(=O)OCC[N+](C)(C)C.[Cl-].[Cl-]` [SUCCINYLCHOLINE CHLORIDE]: the IC50 result (in data set [1] (hek293); against Thromboxane-A synthase (platelet); in data set [2]; in data set [3]; in data set [4]; at Cytochrome P450 2A6) was “Not Active” in each case. In addition, at Cytochrome P450 2A6, the Ki result is listed as “Not Active”.
